Reference: patent US8367873B2, “Phenyl-substituted bicyclooctane-1,3-dione derivatives” (Bayer Cropscience AG, priority 2008, dated 2013)
Where “and” joins values, the source holds several entries; their conditions need not be identical. Equal entries are not always repeated.

What was measured:
[1] = Penetration of active compounds through enzymatically isolated cuticles of apple tree leaves; assay type: in vitro ADME, apple trees of the cultivar Golden Delicious; settings: 20° C., 60% rh
Procedure: Increase of penetration into the plant by ammonium or phosphonium salts and synergistic increase of penetration into the plant by ammonium/phosphonium salts in combination with penetrants.
In this test, the penetration of active compounds through enzymatically isolated cuticles of apple tree leaves was measured.
Use was made of leaves which, fully developed, were cut from apple trees of the cultivar Golden Delicious. The cuticles were isolated by • initially filling leaf discs punched out and stained with dye on the underside by vacuum infiltration with a pectinase solution (0.2 to 2% strength) buffered to a pH between 3 and 4, • […] allowing the leaf discs treated in this manner to stand until the original leaf structure has dissolved and the non-cellular cuticles have detached.
Only the cuticles, free from hairs and stoma, of the upper sides of the leaves were then used. They were washed repeatedly alternating with water and a buffer solution of pH 7. The clean cuticles obtained were then mounted on Teflon plates and smoothed and dried with a gentle stream of air.
In the next step, the cuticle membranes obtained in this manner were placed into stainless steel diffusion cells (=transport chambers) for membrane transport studies. To this end, the cuticles were placed with a pincet into the centre of the edges, coated with silicone fat, of the diffusion cells and closed with a ring, which had also been treated with fat. The arrangement was chosen such that the morphological outside of the cuticles was facing outwards, i.e. exposed to air, whereas the original inside was facing the interior of the diffusion cells.
The diffusion cells were filled with a 30% strength ethylene glycol/water solution. To determine the penetration, in each case 10 μl of the spray liquor of the composition below were applied to the outside of the cuticles. The spray liquor was prepared using local tap water of medium hardness.
After the spray liquors had been applied, the water was allowed to evaporate and the chambers were inverted and placed into thermostatic […] in which temperature and atmospheric humidity over the cuticles could be adjusted using a gentle stream of air onto the cuticles with the spray coating (20° C., 60% rh). At regular intervals, an autosampler took aliquots and the active compound content was determined by HPLC.
The stated numbers are average values of eight to ten measurements.

[2] = tested on: monocotylidonous and dicotylidonous weed and crop plants; test: Herbicidal post-emergence action (other test plants); assay type: in vivo; settings: post-emergence method
Procedure, shortened: (§1)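 Visual % herbicidal effect vs untreated controls (100% = plants dead, 0% = as control), ~3 wk after spraying. Plants sown in sandy loam, greenhouse-grown, treated at one-leaf stage (2–3 wk post-sowing). WP formulations, 600 l/ha water + 0.2% wetting agent, various doses.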

[3] = tested on: Echinocloa crus-galli; test: Herbicidal post-emergence action; assay type: in vivo; settings: post-emergence method
Procedure, shortened: as §1

[4] = tested on: Alopecurus myosuroides; test: Herbicidal post-emergence action; assay type: in vivo; settings: post-emergence method
Procedure, shortened: as §1

[5] = tested on: Lolium multiflorum; test: Herbicidal post-emergence action; assay type: in vivo; settings: post-emergence method
Procedure, shortened: as §1

[6] = tested on: Echinocloa crus-galli; test: Herbicidal pre-emergence action; assay type: in vivo; settings: pre-emergence method, 80 g/ha, greenhouse, visual assessment vs untreated controls
Procedure, shortened: (§2)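 Test compounds, as wettable powder suspensions with 0.2% wetting agent at a water rate of 600 l/ha, were applied in different amounts to the covering soil over freshly sown seeds in sandy loam. Emergence damage was rated visually in percent against untreated plants after three weeks under greenhouse conditions.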

[7] = tested on: Alopecurus myosuroides; test: Herbicidal pre-emergence action; assay type: in vivo; settings: pre-emergence method, 80 g/ha, greenhouse, visual assessment vs untreated controls
Procedure, shortened: as §2

[8] = tested on: Lolium multiflorum; test: Herbicidal pre-emergence action; assay type: in vivo; settings: pre-emergence method, 80 g/ha, greenhouse, visual assessment vs untreated controls
Procedure, shortened: as §2

[9] = tested on: Setaria viridis; test: Herbicidal pre-emergence action; assay type: in vivo; settings: pre-emergence method, 80 g/ha, greenhouse, visual assessment vs untreated controls
Procedure, shortened: as §2

[10] = tested on: monocotylidonous and dicotylidonous weed and crop plants; test: Herbicidal pre-emergence action (other test plants); assay type: in vivo; settings: pre-emergence method, 80 g/ha, greenhouse, visual assessment vs untreated controls
Procedure, shortened: as §2

[11] = tested on: cereals; test: Container trials with cereals in the greenhouse, use of safeners (Mefenpyr 1 day prior to herbicide application); assay type: in vivo; settings: 10 days after application
Procedure: Seeds of monocotylidonous and dicotylidonous weed and crop plants are placed in sandy loam in wood fibre pots, covered with soil and cultivated in a greenhouse under good growth conditions. Two to three weeks after sowing, the test plants are treated at the one-leaf stage. The test compounds, formulated as wettable powders (WP), are then with a water application rate of 600 l/ha (converted), with 0.2% of wetting agent added, sprayed onto the green parts of the plants in different amounts. After the test plants have been kept in the greenhouse under optimum growth conditions for about three weeks, the effect of the preparations is assessed visually in comparison to untreated controls (herbicidal effect in percent: 100% effect=the plants have died, 0% effect=like control plants).
If it is to be additionally tested as to whether safeners can improve the plant compatibility of test substances in the case of crop plants, the following options are used for applying the safeners: • Seeds of the crop plants are, before sowing, dressed with safener substance (the amount of safener stated in percent, based on the weight of the seed) • Before the application of the test substances, the crop plants are sprayed with the safener at a certain application rate per hectare (usually one day before the application of the test substances) • The safener is applied together with the test substance as a tank mix (the amount of safener stated in g/ha or as a ratio, based on the herbicide).
Container Trials with Cereals in the Greenhouse

[12] = tested on: Setaria viridis; test: Herbicidal post-emergence action; assay type: in vivo; settings: post-emergence method, 80 g/ha
Procedure, shortened: as §1

[13] = tested on: maize; test: Crop compatibility small plot trial outdoors with maize, post-emergence, with and without safener; assay type: in vivo; settings: 60 g ai/ha (with safener 60 + 60)
Procedure: Method crop compatibility small plot trial outdoors: • Customary sowing using a single seed seeder • Plot size: 11.25 m^2/two repetitions
Treatment was carried out using a plot sprayer. The safener was applied together with the test substance as a tank mix using 300 l of water/ha (amounts of herbicide and safener are stated in g of ai/ha). Post-emergence application was carried out at the five-leaf stage of maize. Crop compatibility was assessed visually 14 and 27 days after the treatment (in percent compared to an untreated control), 100% damage=the plants have died, 0% damage=like control plants). • Outside trial with maize (Magixx Duo is cycloxidim-tolerant) • Post-Emergence Method

CCc1cc(C)cc(CC)c1C1=C(O)[C@H]2C[C@@]3(COC(C)(C)O3)C[C@H]2C1=O [I-a-1]
Penetration after 24 h ([1]; a.i. (0.2 g/l) + AS = ammonium sulphate (0.7 g/l)): 4%
Penetration after 24 h ([1]; a.i. (0.2 g/l) + Edenor ME SU 500 EW (2 g/l) + AS (0.7 g/l)): 13%
Penetration after 24 h ([1]; a.i. (0.2 g/l) + Edenor Me SU 500 EW (2 g/l)): 11.5%
Penetration after 24 h ([1]; a.i. (0.2 g/l) alone, average of eight to ten measurements): 2.5%
pest or weed control at 80 g/ha ([2]; 504 h, Avena fatua, read-out: herbicidal effect against AVEFA (Avena fatua)): 90%
pest or weed control at 80 g/ha ([3]; Echinochloa crus-galli, 504 h, read-out: herbicidal effect against ECHCG (Echinochloa crus-galli)): 100%
pest or weed control at 80 g/ha ([4]; Alopecurus myosuroides, 504 h, read-out: herbicidal effect against ALOMY (Alopecurus myosuroides)): 100%
pest or weed control at 80 g/ha ([5]; Lolium multiflorum, 504 h, read-out: herbicidal effect against LOLMU (Lolium multiflorum)): 100%
herbicidal effect ECHCG [6]: 50%
herbicidal effect ALOMY [7]: 90%
herbicidal effect LOLMU [8]: 100%
herbicidal effect SETVI [9]: 60%
herbicidal effect AVEFA [10]: 80%

CCc1cc(C)cc(CC)c1C1=C(O)[C@H]2CC3(C[C@H]2C1=O)OCCO3 (relative stereo) [I-a-8]
Summer barley observed (%) ([11]; 25 g of a.i./ha): 10%
Summer barley observed (%) ([11]; 50 g of a.i./ha): 20%
Summer barley observed (%) ([11]; 100 g of a.i./ha): 20%
Summer wheat observed (%) ([11]; 12.5 g of a.i./ha): 20%
Summer wheat observed (%) ([11]; 25 g of a.i./ha): 40% and 20%
Summer wheat observed (%) ([11]; 50 g of a.i./ha): 50% and 30%
Summer wheat observed (%) ([11]; 100 g of a.i./ha): 60% and 30%
herbicidal effect against AVEFA (Avena fatua) ([2]; 80 g/ha): 100%
herbicidal effect against ECHCG (Echinochloa crus-galli) ([3]; 80 g/ha): 100%
herbicidal effect against ALOMY (Alopecurus myosuroides) ([4]; 80 g/ha): 100%
herbicidal effect against LOLMU (Lolium multiflorum) ([5]; 80 g/ha): 100%
herbicidal effect against SETVI (Setaria viridis) [12]: 100%
herbicidal effect ECHCG [6]: 90%
herbicidal effect ALOMY [7]: 100%
herbicidal effect LOLMU [8]: 100%
herbicidal effect SETVI [9]: 90%
% damage ([13]; maize cultivar Magixx Duo (cycloxidim-tolerant), 14 days after application): 0%
% damage ([13]; maize cultivar Magixx Duo (cycloxidim-tolerant), 27 days after application): 0%
% damage ([13]; maize cultivar Oldham, 14 days after application): 94%
% damage ([13]; maize cultivar Oldham, 27 days after application): 93%
herbicidal effect AVEFA [10]: 60%
